Measured values taken from patent publication US20240240209A1, “SYNTHESIS OF ENANTIOPURE CIS-A-IRONE FROM A RENEWABLE CARBON SOURCE” (Agency for Science, Technology and Research, priority 2021, published 2024).
Positions count from the first letter of the chain named.

Assays:
pMT7 = pMT7 (Streptomyces blastmyceticus, UniProt A0A077K7L1, A202L/L180A/L273V/S182E/Y200F/Y65F); assay: biochemical
Description: (§1) It was calculated by dividing the pMT7 activity where no additive was added. […] It was calculated by dividing the pMT7 and pMT10 activity where no additive was added. […] All the purified enzyme reactions were done in triplicates. […] The bar chart represents the mean value of replicated reactions.
The steady-state kinetic parameters of pMT7 were determined (Table 3). […] Since pMT7 is an hexamer in solution^10, its oligomeric state before and after the reaction was examined.
(§2) Following enzyme purification, a 100 μl enzymatic reaction was setup with a final concentration of 0.5 mg/ml of enzyme, 40 mg/L psi-ionone, 0.2 mM SAM, 100 mM Tris (pH 7), 10 mM MgCl2 and 15 mM NaCl. The reaction was done in 0.2 ml PCR strips and incubated at 28° C., 1200 rpm overnight. Alongside, a control without enzyme (with 40% glycerol only) was included as negative control. The next day, cis-α-irone was extracted with 100 μl of ethyl acetate and 50 μl organic layer taken for GCMS analysis. For enzyme characterization, similar enzymatic reaction was performed, with varying concentration of psi-ionone (2-40 mg/L) and SAM (10-100 μM), and the reaction was stopped after 2 h incubation at 28° C. to ensure the enzymatic conversion is still within linear range.

[1] = biological target: T1, Streptomyces blastmyceticus O-methyltransferase TleD (pMT1, SEQ ID No. 3) variant pMT7, Y200F S182E L273V L180A A202L Y65F, SEQ ID No. 9 (Streptomyces blastmyceticus, UniProt A0A077K7L1, A202L/L180A/L273V/S182E/Y200F/Y65F); assay: Steady-state kinetics of purified pMT7; type: biochemical; details: pH 7, 28° C., 2 h
T1 sequence (A0A077K7L1 1-289 Y65F/L180A/S182E/Y200F/A202L/L273V): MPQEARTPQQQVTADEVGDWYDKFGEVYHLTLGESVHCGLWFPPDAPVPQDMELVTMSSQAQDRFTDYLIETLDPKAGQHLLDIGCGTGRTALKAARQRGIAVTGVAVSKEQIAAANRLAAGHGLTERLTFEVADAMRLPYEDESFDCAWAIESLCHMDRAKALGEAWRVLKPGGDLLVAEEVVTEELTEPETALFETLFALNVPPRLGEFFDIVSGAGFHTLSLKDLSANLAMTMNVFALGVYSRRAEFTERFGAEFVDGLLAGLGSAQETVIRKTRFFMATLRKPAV
Description: (§3) His-tag protein purification was carried out according to the manufacturer's instruction (Cube Biotech). For each enzyme, it was overexpressed in 200 ml of ZYM autoinduction media with 5 mM lactose at 20° C. for 36 hrs. Following that, cells were pelleted and resuspended with 10 ml of His-binding buffer (50 mM Tris, pH 8, 0.5M NaCl and 20 mM imidazole) supplemented with 1 mg/ml lysozyme and 3 U/ml of benzonase nuclease (Merck) and treated for 1 hour (hr) at 20° C., 300 rpm. The cells were further lysed by 2 cycles of freeze-thawing with freezing at −80° C. for 4 hrs and thawing at room temperature for 45 mins. The supernatant (soluble fraction) was obtained by centrifuging at 15,000 g for 30 mins at 4° C. […] Protein quantification and purity were determined through micro BCA assay (Pierce) and running SDS-PAGE, respectively.
(§4) To determine the purified enzyme kinetics and in vivo production, the reaction mixture was extracted with 0.5× or 1× volume of ethyl acetate and the organic phase was diluted appropriately before subjected to GCMS analysis. The samples were analyzed on an Agilent Intuvo 9000 GC system equipped with Agilent DB-WAX Ultra Inert Intuvo GC column (30 m×250 μm×0.25 μm) and Agilent 5977B mass spectrometry with high efficiency source. […] The concentration of psi-ionone and irone were calculated by interpolating with a standard curve prepared by synthetic standards.

[2] = biological target: T2, Streptomyces blastmyceticus O-methyltransferase TleD (pMT1, SEQ ID No. 3) variant pMT10, Y200F S182E L273V L180A A202L Y65F C156A T91P, SEQ ID No. 12 (Streptomyces blastmyceticus, UniProt A0A077K7L1, A202L/C156A/L180A/L273V/S182E/T91P/Y200F/Y65F); assay: Steady-state kinetics of purified pMT10; type: biochemical; details: pH 7, 28° C., 2 h, psi-ionone 2-40 mg/L, SAM 10-100 μM
T2 sequence (A0A077K7L1 1-289 Y65F/T91P/C156A/L180A/S182E/Y200F/A202L/L273V): T1 sequence (A0A077K7L1 1-289 Y65F/L180A/S182E/Y200F/A202L/L273V) with T91P, C156A
Description: as §3, §4

pMT10 = pMT10 (Streptomyces blastmyceticus, UniProt A0A077K7L1, A202L/C156A/L180A/L273V/S182E/T91P/Y200F/Y65F); assay: biochemical
Sequence of pMT10 (A0A077K7L1 entry or part of it Y65F/T91P/C156A/L180A/S182E/Y200F/A202L/L273V): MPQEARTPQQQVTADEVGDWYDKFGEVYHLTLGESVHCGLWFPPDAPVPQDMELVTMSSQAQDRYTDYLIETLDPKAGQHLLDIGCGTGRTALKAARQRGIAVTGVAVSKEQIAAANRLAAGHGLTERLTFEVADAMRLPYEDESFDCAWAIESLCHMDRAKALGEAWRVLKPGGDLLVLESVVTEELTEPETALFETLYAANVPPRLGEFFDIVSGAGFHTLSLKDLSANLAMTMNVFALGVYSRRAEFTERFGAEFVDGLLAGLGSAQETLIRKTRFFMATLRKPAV
Description: as §1, §2

pMT6 = assay: Methylation and cyclization of structurally similar terpenoids by E. coli cell lysate overexpressing pMT6; type: biochemical, Streptomyces blastmyceticus; details: GFP lysate as control
Description: Using E. coli cell lysate overexpressing pMT6, a range of structurally similar terpenoids for methylation and cyclization reaction was assayed (FIG. 21a). E. coli lysate overexpressing green fluorescence protein was used as a control. […] Citral was not stable and was reduced to geraniol in the presence of cell lysate. […] Compound identity was searched against the National Institute of Standards and Technology (NIST) library. […] Lastly, for the monoterpene ketone, geranylacetone, with saturated C7-C8 bond, multiple methylated products were detected based on the molecular ion.

[3] = SAH analogues (0-200 μM) or excess α-irone supplemented

Sequence of pMT7 (A0A077K7L1 entry or part of it Y65F/L180A/S182E/Y200F/A202L/L273V): as the sequence (A0A077K7L1 entry or part of it Y65F/T91P/C156A/L180A/S182E/Y200F/A202L/L273V) above

| Structure (SMILES) | effect on pMT7 methyltransferase activity (pMT7; [3]) | methylated products in pMT6 reaction (SPME-GCMS) (pMT6) | further results |
| --- | --- | --- | --- |
| Nc1ncnc2c1ncn2[C@@H]1O[C@H](CO)[C@@H](O)[C@H]1O [adenosine] | did not alter the methyltransferase activity significantly |  |  |
| C[S+](CC[C@H](N)C(=O)[O-])C[C@H]1O[C@@H](n2cnc3c(N)ncnc32)[C@H](O)[C@@H]1O (stereo partly drawn) [SAM, S-adenosylmethionine] |  |  | Km ([1]; psi-ionone 2-40 mg/L, SAM 10-100 μM): 54.6 µM; Km [2]: 30.5 ± 1.3 µM |
| N[C@@H](CCS)C(=O)O [homocysteine] | did not alter the methyltransferase activity significantly |  |  |
| Nc1ncnc2nc[nH]c12 [adenine] | did not alter the methyltransferase activity significantly |  |  |
| Nc1ncnc2c1ncn2[C@@H]1O[C@H](CSCC[C@H](N)C(=O)O)[C@@H](O)[C@H]1O [SAH, S-adenosyl-L-homocysteine] |  |  | IC50 (pMT7): 4.9 µM; effect on pMT7 activity (pMT7; 2 μM SAH supplemented): led to a reduction in pMT7 activity; effect on pMT7 methyltransferase activity (pMT7; 20 µM SAH supplemented): nearly abolished the methyltransferase activity; IC50 (pMT10): 3.1 µM |
| CC(=O)/C=C/C1C(C)=CCC(C)C1(C)C (stereo not drawn) [α-irone] | did not alter the methyltransferase activity significantly |  |  |
| CC(C)=CCCC(C)=CC=O [Citral] |  | not stable |  |
| CC(C)=CCC/C(C)=C/CO [geraniol] |  | detected methylated products |  |
| CC(=O)CC/C=C(\C)CCC=C(C)C [geranylacetone] |  | detected methylated products |  |
| C=CC(C)(O)CCC=C(C)C (stereo not drawn) [linalool] |  | detected methylated products |  |
| CC(=O)/C=C/C=C(\C)CCC=C(C)C [psi-ionone] |  |  | kcat ([1]; Table 3): 4.4 ± 0.2 ×10^3 h^−1 |
